Literature values as cited in US10113000B2, “Combination therapies for B-cell lymphomas comprising administration of anti-CD20 antibody” (BIOGEN INC., priority 1998, dated 2018).

Experiments:
[1] = tested on: multiple myeloma (MM) patient plasma cells
[2] = tested on: mononuclear cells from CLL patients; details: incubated for 24 hours

Row | Molecule | binding of cells to Rituximab ([1]; MM plasma cells, patient B-cells, normal donor B-cells) | concentration at which plateau of CD20 induction occurred ([1]; at 48 hours) | concentration at which CD20 upregulation is seen ([1]; plasma cells, dose dependent) | CD20 expression by flow cytometry [2]
1 | gamma-interferon: cytokine | augments binding | 100 U/ml | 1 U/ml | 
2 | GM-CSF: cytokine |  |  |  | significant up-regulation
3 | TNF-alpha |  |  |  | significant up-regulation
4 | IL-4: cytokine (protein, UniProt P05112 25-153, looked up) Interleukin-4: HKCDITLQEIIKTLNSLTEQKTLCTELTVTDIFAASKNTTEKETFCRAATVLRQFYSHHEKDTRCLGATAQQFHRHKQLIRFLKRLDRNLWGLAGLNSCPVKEANQSTLENFLERLKTIMREKYSKCSS |  |  |  | significant up-regulation
